Measured values published in ChEMBL document CHEMBL5233285, “Recent Update on the Development of PCSK9 Inhibitors for Hypercholesterolemia Treatment” (J Med Chem, 2022).
Each block holds one molecule with its values, some of them ahead of it. Numbered stars: 1 amine (or outer) side, 2 acyl side, 3 side chain; on linkers, the order of the positions; unused ones are H or OH. Square brackets hold non-standard residues; d marks the D form. Peptide text beside a SMILES is read from it. X1 = O=C(C1(N[*:1])CCC(c2ccccc2)CC1)[*:2]; hArg = N=C(N)NCCCC[C@H](N)C(=O)O

Assays:
[1] = biological target: T1, Proprotein convertase subtilisin/kexin type 9 (Homo sapiens, UniProt Q8NBP7); experiment: Inhibition of PCSK9 mediated LDLR degradation in human HepG2 cells assessed as restoration of LDLR; type: cell-based
[2] = biological target: T1, Proprotein convertase subtilisin/kexin type 9; experiment: Inhibition of human PCSK9 preincubated for 30 mins followed by ab20 addition and measured after 2 hrs by TR-FRET assay
[3] = biological target: T1, Proprotein convertase subtilisin/kexin type 9; experiment: Binding affinity to human PCSK9
[4] = biological target: T1, Proprotein convertase subtilisin/kexin type 9; experiment: Inhibition of human PCSK9 preincubated for 30 mins followed by LDLR addition and measured after 2 hrs by TR-FRET assay
[5] = biological target: T1, Proprotein convertase subtilisin/kexin type 9; experiment: Inhibition of PCSK9 in human HepG2 cells assessed as restoration of LDLR at 1 uM relative to control; type: cell-based
[6] = biological target: T1, Proprotein convertase subtilisin/kexin type 9; experiment: Inhibition of PCSK9 in human HepG2 cells assessed as increase in LDL uptake at 1 uM relative to control; type: cell-based
PCSK9/LDLR [7] = biological target: T2, PCSK9/LDLR (Homo sapiens, UniProt Q8NBP7); experiment: Inhibition of PCSK9-LDLR (unknown origin) protein-protein interaction; type: protein assay
[8] = biological target: T3, 3-hydroxy-3-methylglutaryl-coenzyme A reductase (Homo sapiens, UniProt P04035); experiment: Inhibition of HMG CoA reductase (unknown origin)
T3 sequence (P04035 whole entry): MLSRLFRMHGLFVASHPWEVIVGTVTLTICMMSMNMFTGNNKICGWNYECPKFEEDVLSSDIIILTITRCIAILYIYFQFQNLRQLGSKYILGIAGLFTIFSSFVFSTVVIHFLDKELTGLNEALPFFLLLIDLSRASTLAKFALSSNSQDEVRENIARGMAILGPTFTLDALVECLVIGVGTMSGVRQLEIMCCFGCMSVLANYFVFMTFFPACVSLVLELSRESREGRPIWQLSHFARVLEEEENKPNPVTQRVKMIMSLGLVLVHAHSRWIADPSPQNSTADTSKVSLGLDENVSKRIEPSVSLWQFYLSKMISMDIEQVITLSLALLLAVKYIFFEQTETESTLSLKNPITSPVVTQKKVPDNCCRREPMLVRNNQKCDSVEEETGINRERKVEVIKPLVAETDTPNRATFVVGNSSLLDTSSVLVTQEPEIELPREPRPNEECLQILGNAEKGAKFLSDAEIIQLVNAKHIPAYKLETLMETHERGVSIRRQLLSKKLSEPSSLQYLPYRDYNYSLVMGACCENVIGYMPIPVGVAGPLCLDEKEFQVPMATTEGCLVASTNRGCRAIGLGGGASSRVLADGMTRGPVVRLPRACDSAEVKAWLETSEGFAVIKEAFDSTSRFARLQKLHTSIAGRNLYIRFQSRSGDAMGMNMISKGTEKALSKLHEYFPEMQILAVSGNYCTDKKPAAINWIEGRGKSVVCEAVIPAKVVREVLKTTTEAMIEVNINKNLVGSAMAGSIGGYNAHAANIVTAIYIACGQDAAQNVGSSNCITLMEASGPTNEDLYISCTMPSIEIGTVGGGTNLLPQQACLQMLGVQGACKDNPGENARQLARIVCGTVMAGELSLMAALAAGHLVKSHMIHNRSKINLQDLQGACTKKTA

[9] = biological target: T1, Proprotein convertase subtilisin/kexin type 9; experiment: Inhibition of human PCSK9
[10] = biological target: T1, Proprotein convertase subtilisin/kexin type 9; experiment: Inhibition of human PCSK9 preincubated for 30 mins followed by EGF(A) addition and measured after 2 hrs by TR-FRET assay
[11] = biological target: T1, Proprotein convertase subtilisin/kexin type 9; experiment: Binding affinity to PCSK9 (unknown origin)
Homo sapiens [12] = species: Homo sapiens; experiment: Hypocholesterolemic activity in human assessed as reduction in LDL-C level at 10 to 20 mg; type: functional; set-up: scale not given: the % may be the effect or the level left; conditions: dose 10-20 mg
[13] = biological target: Proprotein convertase subtilisin/kexin type 9 (Mus musculus, UniProt Q80W65); experiment: Binding affinity to mouse PCSK9
PCSK9/LDLR [14] = biological target: T2, PCSK9/LDLR; experiment: Inhibition of PCSK9-LDLR protein-protein interaction in human HepG2 cells assessed as increase in LDL uptake; type: cell-based
Homo sapiens [15] = experiment: Hypocholesterolemic activity in human assessed as reduction in LDL-C level at 300 mg, QD administered for 28 days; type: functional; set-up: scale not given: the % may be the effect or the level left; conditions: time 28 day
Homo sapiens [16] = experiment: Hypocholesterolemic activity in human assessed as reduction in ApoB level at 300 mg, QD administered for 28 days; type: functional; set-up: scale not given: the % may be the effect or the level left; conditions: time 28 day
Homo sapiens [17] = experiment: Hypocholesterolemic activity in human assessed as reduction in TC level at 300 mg, QD administered for 28 days; type: functional; set-up: scale not given: the % may be the effect or the level left; conditions: time 28 day

T1 sequence (Q8NBP7 31-152 limits assumed): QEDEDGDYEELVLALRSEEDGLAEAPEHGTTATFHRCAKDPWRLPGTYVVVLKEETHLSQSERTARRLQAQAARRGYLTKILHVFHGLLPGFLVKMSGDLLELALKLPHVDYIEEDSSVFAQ
T1 sequence (Q8NBP7 153-692 limits assumed): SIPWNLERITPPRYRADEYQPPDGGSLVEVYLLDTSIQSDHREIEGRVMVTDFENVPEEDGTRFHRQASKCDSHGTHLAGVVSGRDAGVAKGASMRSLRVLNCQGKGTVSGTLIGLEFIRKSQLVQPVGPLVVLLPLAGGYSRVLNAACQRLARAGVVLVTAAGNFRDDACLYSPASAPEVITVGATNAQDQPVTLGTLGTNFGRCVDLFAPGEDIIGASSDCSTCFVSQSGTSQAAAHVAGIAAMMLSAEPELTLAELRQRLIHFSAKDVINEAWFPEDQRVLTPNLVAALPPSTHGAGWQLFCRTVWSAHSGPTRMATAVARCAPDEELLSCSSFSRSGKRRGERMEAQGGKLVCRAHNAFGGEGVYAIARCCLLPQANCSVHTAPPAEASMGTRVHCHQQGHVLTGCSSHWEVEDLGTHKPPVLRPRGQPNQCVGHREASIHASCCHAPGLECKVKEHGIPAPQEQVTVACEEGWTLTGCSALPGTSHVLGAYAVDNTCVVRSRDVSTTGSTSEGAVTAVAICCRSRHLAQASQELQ
T2 sequence (Q8NBP7 31-152 limits assumed): as the sequence (Q8NBP7 31-152 limits assumed) above
T2 sequence (Q8NBP7 153-692 limits assumed): as the sequence (Q8NBP7 153-692 limits assumed) above
T2 sequence (P01130 22-860 partner limits assumed): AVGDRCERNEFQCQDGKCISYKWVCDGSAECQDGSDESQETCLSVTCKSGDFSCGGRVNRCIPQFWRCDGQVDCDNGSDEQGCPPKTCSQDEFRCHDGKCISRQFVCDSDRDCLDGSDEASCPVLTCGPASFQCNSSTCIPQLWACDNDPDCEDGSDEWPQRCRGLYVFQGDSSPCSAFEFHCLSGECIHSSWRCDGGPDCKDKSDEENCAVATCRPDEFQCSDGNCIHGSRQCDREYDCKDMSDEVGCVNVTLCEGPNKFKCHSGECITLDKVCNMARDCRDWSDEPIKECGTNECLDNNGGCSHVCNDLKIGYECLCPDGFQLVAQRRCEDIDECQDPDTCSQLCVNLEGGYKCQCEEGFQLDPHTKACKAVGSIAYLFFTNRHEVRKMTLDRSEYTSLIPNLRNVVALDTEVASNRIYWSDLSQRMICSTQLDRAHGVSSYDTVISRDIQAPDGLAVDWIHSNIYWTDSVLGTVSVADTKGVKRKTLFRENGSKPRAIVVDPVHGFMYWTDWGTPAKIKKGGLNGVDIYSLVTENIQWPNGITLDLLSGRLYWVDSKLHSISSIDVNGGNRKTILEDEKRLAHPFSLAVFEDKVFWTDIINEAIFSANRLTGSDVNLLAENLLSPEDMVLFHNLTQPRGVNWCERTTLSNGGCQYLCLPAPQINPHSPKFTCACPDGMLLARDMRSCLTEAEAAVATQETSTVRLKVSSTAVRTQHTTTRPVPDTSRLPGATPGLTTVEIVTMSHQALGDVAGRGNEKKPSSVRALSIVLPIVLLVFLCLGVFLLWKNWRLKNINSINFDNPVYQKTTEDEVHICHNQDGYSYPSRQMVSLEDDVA
Proprotein convertase subtilisin/kexin type 9 (Mus musculus, UniProt Q80W65), sequence (Q80W65 35-155 limits assumed): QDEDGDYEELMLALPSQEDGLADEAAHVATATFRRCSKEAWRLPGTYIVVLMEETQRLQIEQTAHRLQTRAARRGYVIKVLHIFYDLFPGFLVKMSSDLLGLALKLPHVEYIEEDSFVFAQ
Proprotein convertase subtilisin/kexin type 9 (Mus musculus, UniProt Q80W65), sequence (Q80W65 156-694 limits assumed): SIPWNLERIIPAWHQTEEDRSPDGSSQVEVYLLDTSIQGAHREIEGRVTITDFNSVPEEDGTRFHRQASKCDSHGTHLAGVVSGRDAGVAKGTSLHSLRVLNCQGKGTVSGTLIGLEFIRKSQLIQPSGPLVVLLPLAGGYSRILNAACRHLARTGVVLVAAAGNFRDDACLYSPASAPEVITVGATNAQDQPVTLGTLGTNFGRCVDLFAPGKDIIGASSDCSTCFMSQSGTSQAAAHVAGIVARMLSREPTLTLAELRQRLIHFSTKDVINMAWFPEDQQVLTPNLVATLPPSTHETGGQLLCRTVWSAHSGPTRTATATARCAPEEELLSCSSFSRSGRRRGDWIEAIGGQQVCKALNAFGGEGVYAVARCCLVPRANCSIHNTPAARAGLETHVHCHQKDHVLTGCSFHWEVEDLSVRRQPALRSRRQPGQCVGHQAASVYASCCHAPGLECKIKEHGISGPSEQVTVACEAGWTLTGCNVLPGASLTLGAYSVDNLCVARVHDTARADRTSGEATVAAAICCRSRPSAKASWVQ

- inhibition [1]: 70%
- IC50 [2]: 840 nM
- Kd [3]: 700 nM
- IC50 [4]: 25000 nM
Compound: CC[C@H](C)[C@H](NC(=O)[C@H](CCCCNC(=N)N)NC(=O)[C@@H](NC(=O)[C@H](CC(C)C)NC(=O)[C@H](CC(N)=O)NC(=O)[C@H](Cc1c[nH]c2ccccc12)NC(=O)CNC(=O)[C@@H]1CCCN1C(=O)[C@H](Cc1ccccc1)NC(=O)[C@H](CO)NC(=O)[C@H](CCC(=O)O)NC(=O)[C@@H](N)CCSC)C(C)C)C(=O)NCC(=O)N[C@@H](CC(C)C)C(=O)N[C@@H](CC(C)C)C(=O)N[C@@H](CCCNC(=N)N)C(=O)O (H-MESFPGWNLV[hArg]IGLLR-OH)

- inhibition [5]: 89.9%
- inhibition [6]: 99%
- IC50 (PCSK9/LDLR [7]): 27100 nM
Compound: CC(=O)N[C@H](C(=O)N[C@H](C(=O)N[C@@H](Cc1ccccc1)C(=O)N[C@H](C(=O)N[C@@H](CO)C(=O)N[C@@H](Cc1c[nH]c2ccccc12)C(=O)N[C@@H](CCC(=O)O)C(=O)N[C@@H](CCC(=O)O)C(=O)N[C@@H](C)C(=O)N[C@@H](CC(C)C)C(=O)N[C@@H](CC(=O)O)C(=O)N[C@@H](Cc1c[nH]c2ccccc12)C(=O)N[C@H](C(N)=O)C(C)C)[C@@H](C)O)C(C)C)[C@@H](C)O (Ac-TVFTSWEEALDWV-NH2)

- IC50 [8]: 175000 nM
- IC50 (PCSK9/LDLR [7]): 1700 nM
Compound: CC(C)C[C@H](N)C(=O)N1CCC[C@H]1C(=O)N[C@@H](CCCCN)C(=O)N[C@@H](Cc1c[nH]cn1)C(=O)N[C@@H](CO)C(=O)N[C@@H](C)C(=O)N[C@@H](CC(=O)O)C(=O)O (H-LPKHSAD-OH)

- IC50 [8]: 147000 nM
- IC50 (PCSK9/LDLR [7]): 1600 nM
Compound: CC[C@H](C)[C@H](NC(=O)[C@@H](N)CC(C)C)C(=O)N[C@@H](CC(C)C)C(=O)N1CCC[C@H]1C(=O)N[C@@H](CCCCN)C(=O)N[C@@H](Cc1c[nH]cn1)C(=O)N[C@@H](CO)C(=O)N[C@@H](C)C(=O)N[C@@H](CC(=O)O)C(=O)O (H-LILPKHSAD-OH)

- inhibition [5]: 75.3%
- inhibition [6]: 88%
- IC50 (PCSK9/LDLR [7]): 14500 nM
Compound: CC(=O)N[C@H](C(=O)N[C@H](C(=O)N[C@@H](Cc1ccccc1)C(=O)N[C@@H](CCCNC(=N)N)C(=O)N[C@@H](CO)C(=O)N[C@@H](Cc1c[nH]c2ccccc12)C(=O)N[C@@H](CCC(=O)O)C(=O)N[C@@H](CCC(=O)O)C(=O)N[C@@H](Cc1ccc(O)cc1)C(=O)N[C@@H](CC(C)C)C(=O)N[C@@H](CC(=O)O)C(=O)N[C@@H](Cc1ccc(O)cc1)C(=O)N[C@H](C(N)=O)C(C)C)C(C)C)[C@@H](C)O (Ac-TVFRSWEEYLDYV-NH2)

- IC50 [2]: 140 nM
- IC50 [9]: 700 nM
Compound: CC[C@H](C)[C@H](NC(=O)[C@H](CCCCNC(=N)N)NC(=O)[C@@H](NC(=O)[C@H](CC(C)C)NC(=O)[C@H](CC(N)=O)NC(=O)[C@H](Cc1c[nH]c2ccccc12)NC(=O)C1(N)CCC(c2ccccc2)CC1)C(C)C)C(=O)NCC(=O)N[C@@H](CC(C)C)C(=O)N[C@@H](CC(C)C)C(=O)N[C@@H](CCCNC(=N)N)C(=O)O (stereo partly specified) (H-[X1]WNLV[hArg]IGLLR-OH)

- IC50 [10]: > 50000 nM
- EC50 [1]: 250 nM
- IC50 [9]: 20 nM
- Kd [3]: 5.5 nM
Compound: CC[C@H](C)[C@H](NC(=O)[C@H](CCC(N)=O)NC(=O)[C@H](CC(C)C)NC(=O)[C@H](CC(N)=O)NC(=O)[C@H](Cc1c[nH]c2ccccc12)NC(=O)[C@@H]1CCCN1C(=O)[C@H](CC(C)C)NC(=O)[C@H](CCCNC(=N)N)NC(=O)[C@H](CS)NC(=O)CNC(=O)[C@H](CO)NC(=O)CNC(=O)[C@@H](NC(=O)[C@H](Cc1c[nH]c2ccccc12)NC(=O)[C@H](CC(=O)O)NC(=O)[C@H](CC(C)C)NC(=O)[C@H](Cc1ccc(O)cc1)NC(=O)[C@H](CCC(=O)O)NC(=O)[C@H](CCC(=O)O)NC(=O)[C@H](Cc1c[nH]c2ccccc12)NC(=O)[C@H](CO)NC(=O)[C@@H](NC(=O)[C@H](Cc1ccccc1)NC(=O)[C@@H](NC(=O)[C@@H](N)[C@@H](C)O)C(C)C)[C@@H](C)O)C(C)C)C(=O)NCC(=O)N[C@@H](CC(C)C)C(=O)N1CCC[C@H]1C(=O)N[C@@H](CS)C(=O)O (H-TVFTSWEEYLDWVGSGCRLPWNLQIGLPC-OH)

- Kd [11]: 24800 nM
Compound: CC(C)C[C@H](C(=O)N1CCN([C@@H](CC(N)=O)C(=O)N[C@@H](CCCNC(=N)N)C(=O)C[C@H]2CCOC2=O)CC1)N1C(=O)N[C@@H](CC(=O)O)C1=O

- IC50 [10]: > 50000 nM
Compound: CC[C@H](C)[C@H](NC(=O)[C@H](CCCCNC(=N)N)NC(=O)[C@@H](NC(=O)[C@H](CC(C)C)NC(=O)[C@H](CC(N)=O)NC(=O)[C@@H](N)Cc1c[nH]c2ccccc12)C(C)C)C(=O)NCC(=O)N[C@@H](CC(C)C)C(=O)N[C@@H](CC(C)C)C(=O)N[C@@H](CCCNC(=N)N)C(=O)O (H-WNLV[hArg]IGLLR-OH)

Compound: C[C@H]1NC(=O)[C@H](CNC(=O)CCOCCOCC[N+](C)(C)C)NC(=O)CCSCc2cc3cc(c2)-n2cc(nn2)Cn2cc(c4cc(F)ccc42)C[C@@H]2NC(=O)[C@H](Cc4cccc(c4)C/C=C/CCO[C@H]4CCN(C2=O)[C@@H]4C(=O)N[C@@H]([C@@H](C)O)C(=O)N[C@@H](Cc2ccc(O)cc2)C(=O)N2CCC[C@@]2(C)C(=O)NCCSC3)NC1=O
- Activity (Homo sapiens [12]): 65%

- IC50 [10]: 720 nM
- inhibition [1]: 50%
- IC50 [2]: 40 nM
- Kd [3]: 390 nM
- IC50 [4]: 1830 nM
Compound: CC[C@H](C)[C@H](NC(=O)[C@H](CCCCNC(=N)N)NC(=O)[C@H](CCCCN)NC(=O)[C@H](CC(C)C)NC(=O)[C@H](CC(N)=O)NC(=O)[C@H](Cc1c[nH]c2ccccc12)NC(=O)C1(N)CCC(c2ccccc2)CC1)C(=O)NCC(=O)N[C@@H](CC(C)C)C(=O)N[C@@H](CC(C)C)C(=O)N[C@@H](CCCNC(=N)N)C(=O)O (stereo partly specified) (H-[X1]WNLK[hArg]IGLLR-OH)

- Kd [13]: 1 nM
- Kd [3]: 0.3 nM
- EC50 (PCSK9/LDLR [14]): 106 nM
Compound: CC(C)[C@@H]1NC(=O)[C@H](Cc2ccccc2)NC(=O)CSC[C@@H](C(=O)NCC(N)=O)NC(=O)[C@@H]2CCCN2C(=O)[C@H](CCCNC(=N)N)NC(=O)[C@H](CC(=O)O)NC(=O)[C@H](C)N(C)C(=O)[C@H](Cc2ccc(-c3ccccc3)cc2)NC(=O)[C@H](C)N(C)C(=O)[C@H](Cc2ccc(-c3ccccc3)cc2)NC(=O)[C@H]([C@@H](C)O)NC(=O)[C@H]([C@@H](C)O)NC(=O)[C@H](CO)NC1=O

- IC50 (PCSK9/LDLR [7]): 700 nM
Compound: CC(C)C[C@H](NC(=O)[C@H](Cc1ccc(O)cc1)NC(=O)[C@@H](N)CC(C)C)C(=O)N1CCC[C@H]1C(=O)N[C@@H](CCCCN)C(=O)N[C@@H](Cc1c[nH]cn1)C(=O)N[C@@H](CO)C(=O)N[C@@H](CC(=O)O)C(=O)N[C@@H](CCCNC(=N)N)C(=O)N[C@@H](CC(=O)O)C(=O)O (H-LYLPKHSDRD-OH)

- IC50 [10]: > 50000 nM
Compound: CC[C@H](C)[C@H](NC(=O)[C@H](CCCCNC(=N)N)NC(=O)[C@@H](NC(=O)[C@H](CC(C)C)NC(=O)[C@H](CC(N)=O)NC(=O)[C@H](Cc1c[nH]c2ccccc12)NC(=O)[C@@H]1CCCN1C(=O)[C@H](CCSC)NC(=O)[C@H](CC(C)C)NC(=O)[C@@H](N)CC(=O)O)C(C)C)C(=O)NCC(=O)N[C@@H](CC(C)C)C(=O)N[C@@H](CC(C)C)C(=O)N[C@@H](CCCNC(=N)N)C(=O)O (H-DLMPWNLV[hArg]IGLLR-OH)

Compound: COc1ccc2c(c1)CCN1Cc3c(ccc(OC)c3OS(=O)(=O)c3cccc(F)c3)C[C@H]21.Cl
- Activity (Homo sapiens [15]): 26.3%
- Activity (Homo sapiens [16]): 17.4%
- Activity (Homo sapiens [17]): 20.1%
